# Source: patent publication US20110244078A1 (priority 2010, published 2011)
# Test: Moisture sensitivity: degradation of the isothiocyanate suspended in aqueous phosphate buffer
# Assay type: physicochemical
# Conditions: WMEO (about 25% 4-HBITC) suspended in aqueous phosphate buffer, pH about 3.6, about 20-23° C.
# Excerpt: As used herein, the term “moisture sensitive” means that the isothiocyanate compound degrades in the presence of water. This degradation proceeds via a hydrolysis reaction, thereby leading to a reduction in level of the active isothiocyanate antimicrobial agent with time of storage in the presence of water. The method for determining moisture sensitivity is set forth in the Test Method section below. […]
# Moisture sensitive isothiocyanate compounds are identified by suspending the isothiocyanate containing material in an aqueous phosphate buffer (pH of about 3.6) at room temperature. […] The extraction procedure is repeated after 24 hours and the level of residual isothiocyanate compound is measured by supercritical fluid chromatography. […]
# A white mustard essential oil is generated by adding water to ground white mustard seeds and then extracting the essential oil with supercritical carbon dioxide according to the known processes described in the art. […] The essential oil is suspended in an aqueous phosphate buffer (pH of about 3.6) at room temperature (about 20-23° C.) and the level of 4-hydroxybenzyl isothiocyanate measured at time zero and after about 24 hours of storage as described in the preceding section. […]
smiles,measurement,value
Oc1ccc(CN=C=S)cc1 [4-hydroxybenzyl isothiocyanate],percent reduction in level of 4-hydroxybenzyl isothiocyanate after 24 hours,about 72%
